The source made the active and inactive calls. No rule for the calls is given here.
System: CCRIS mutagenicity, Ames/micronucleus/aberration tests
Assay: CCRIS mutagenicity studies
[1] = Test System: AMES SALMONELLA TYPHIMURIUM, Strain/Indicator: TA98, Metabolic Activation: NONE, Method: STANDARD PLATE
[2] = Test System: AMES SALMONELLA TYPHIMURIUM, Strain/Indicator: TA100, Metabolic Activation: NONE, Method: PREINCUBATION
[3] = Test System: AMES SALMONELLA TYPHIMURIUM, Strain/Indicator: TA100, Metabolic Activation: NONE, Method: STANDARD PLATE

Measured: mutagenic call

Cc1cc(N=Nc2ccccc2C)ccc1N
active: Test System: AMES SALMONELLA TYPHIMURIUM, Strain/Indicator: TA98, Metabolic Activation: HAMSTER, LIVER, S-9, AROCLOR 1254, Method: STANDARD PLATE active; positive | Test System: AMES SALMONELLA TYPHIMURIUM, Strain/Indicator: TA98, Metabolic Activation: HAMSTER, LIVER, S-9, Method: PREINCUBATION (PRIVAL METHOD) active; positive | Test System: AMES SALMONELLA TYPHIMURIUM, Strain/Indicator: TA98, Metabolic Activation: RAT LIVER S-9, Method: PREINCUBATION active; positive | Test System: AMES SALMONELLA TYPHIMURIUM, Strain/Indicator: TA98, Metabolic Activation: RAT LIVER, MICROSOMES, AROCLOR 1254, Method: PREINCUBATION active; positive | Test System: AMES SALMONELLA TYPHIMURIUM, Strain/Indicator: TA98, Metabolic Activation: RAT, LIVER, MICROSOMES, AROCLOR 1254, Method: PREINCUBATION active; positive | Test System: AMES SALMONELLA TYPHIMURIUM, Strain/Indicator: TA98, Metabolic Activation: RAT, LIVER, S-9, AROCLOR 1254, HAMSTER, LIVER, S-9, AROCLOR 1254, Method: STANDARD PLATE active; positive | Test System: AMES SALMONELLA TYPHIMURIUM, Strain/Indicator: TA98, Metabolic Activation: RAT, LIVER, S-9, AROCLOR 1254, Method: STANDARD PLATE active; positive | Test System: AMES SALMONELLA TYPHIMURIUM, Strain/Indicator: TA98, Metabolic Activation: RAT, LIVER, S-9, KC500 OR PHENOBARBITAL, Method: LIQUID SUSPENSION active; positive | Test System: AMES SALMONELLA TYPHIMURIUM, Strain/Indicator: TA98, Metabolic Activation: RAT, LIVER, S-9, PCB, Method: PREINCUBATION active; positive | Test System: AMES SALMONELLA TYPHIMURIUM, Strain/Indicator: TA98, Metabolic Activation: RAT, LIVER, S-9, POLYCHLORINATED BIPHENYLS, Method: PREINCUBATION active; positive | Test System: AMES SALMONELLA TYPHIMURIUM, Strain/Indicator: TA100, Metabolic Activation: HAMSTER, LIVER, S-9, AROCLOR 1254, Method: STANDARD PLATE active; positive | Test System: AMES SALMONELLA TYPHIMURIUM, Strain/Indicator: TA100, Metabolic Activation: HAMSTER, LIVER, S-9, Method: PREINCUBATION (PRIVAL METHOD) active; positive | Test System: AMES SALMONELLA TYPHIMURIUM, Strain/Indicator: TA100, Metabolic Activation: RAT LIVER S-9, Method: PREINCUBATION active; positive | Test System: AMES SALMONELLA TYPHIMURIUM, Strain/Indicator: TA100, Metabolic Activation: RAT, LIVER, S-9, AROCLOR 1254, HAMSTER, LIVER, S-9, AROCLOR 1254, Method: STANDARD PLATE active; positive | Test System: AMES SALMONELLA TYPHIMURIUM, Strain/Indicator: TA100, Metabolic Activation: RAT, LIVER, S-9, AROCLOR 1254, Method: STANDARD PLATE active; positive | Test System: AMES SALMONELLA TYPHIMURIUM, Strain/Indicator: TA100, Metabolic Activation: RAT, LIVER, S-9, KC500 OR PHENOBARBITAL, Method: LIQUID SUSPENSION active; positive | Test System: AMES SALMONELLA TYPHIMURIUM, Strain/Indicator: TA100, Metabolic Activation: RAT, LIVER, S-9, PCB, Method: PREINCUBATION active; positive | Test System: AMES SALMONELLA TYPHIMURIUM, Strain/Indicator: TA100, Metabolic Activation: RAT, LIVER, S-9, POLYCHLORINATED BIPHENYLS, Method: PREINCUBATION active; positive | Test System: AMES SALMONELLA TYPHIMURIUM, Strain/Indicator: TA1538, Metabolic Activation: RAT, LIVER, S-9, AROCLOR 1254, HAMSTER, LIVER, S-9, AROCLOR 1254, Method: STANDARD PLATE active; positive | Test System: AMES SALMONELLA TYPHIMURIUM, Strain/Indicator: TA1538, Metabolic Activation: RAT, LIVER, S-9, AROCLOR 1254, Method: STANDARD PLATE active; positive | Test System: MOUSE LYMPHOMA, Strain/Indicator: L5178Y (TK+/TK-), Metabolic Activation: RAT, LIVER, S-9, AROCLOR 1254, Method: SUSPENSION/PLATE active; positive. reevaluation of results: positive
inactive: Test System: AMES SALMONELLA TYPHIMURIUM, Strain/Indicator: TA98, Metabolic Activation: NONE, Method: PREINCUBATION inactive; negative | [1] inactive; negative | Test System: AMES SALMONELLA TYPHIMURIUM, Strain/Indicator: TA98, Metabolic Activation: RAT LIVER, CYTOSOL, AROCLOR 1254, Method: PREINCUBATION inactive; negative | Test System: AMES SALMONELLA TYPHIMURIUM, Strain/Indicator: TA98, Metabolic Activation: RAT, LIVER, MICROSOMES, O-AMINOAZOTOLUENE, Method: PREINCUBATION inactive; negative | Test System: AMES SALMONELLA TYPHIMURIUM, Strain/Indicator: TA98, Metabolic Activation: RAT, LIVER, MICROSOMES, Method: PREINCUBATION inactive; negative | [2] inactive; negative | [3] inactive; negative | Test System: AMES SALMONELLA TYPHIMURIUM, Strain/Indicator: TA1538, Metabolic Activation: NONE, Method: STANDARD PLATE inactive; negative | Test System: Mouse lymphoma, Strain/Indicator: L5178Y (tk+/tk-), Metabolic Activation: None, Method: Suspension/plate inactive; negative

Nc1nc(NO)c2[nH]cnc2n1
inactive: [1] inactive; negative
active: Test System: AMES SALMONELLA TYPHIMURIUM, Strain/Indicator: HISG46, Metabolic Activation: NONE, Method: STANDARD PLATE active; positive | Test System: AMES SALMONELLA TYPHIMURIUM, Strain/Indicator: TA100(1,8-DNP6), Metabolic Activation: NONE, Method: PREINCUBATION active; positive | Test System: AMES SALMONELLA TYPHIMURIUM, Strain/Indicator: TA100(NR), Metabolic Activation: NONE, Method: PREINCUBATION active; positive | [2] active; positive | [3] active; positive | Test System: AMES SALMONELLA TYPHIMURIUM, Strain/Indicator: TA100, Metabolic Activation: RAT, LIVER, S-9, KANECHLOR 500, Method: PREINCUBATION active; positive | Test System: AMES SALMONELLA TYPHIMURIUM, Strain/Indicator: TA1950, Metabolic Activation: NONE, Method: STANDARD PLATE active; positive | Test System: CHINESE HAMSTER OVARY, Strain/Indicator: CHO-K1-BH4 (HGPRT), Metabolic Activation: NONE, Method: SUSPENSION active; positive | Test System: E. COLI, Strain/Indicator: CM871, Metabolic Activation: NONE, Method: STANDARD PLATE active; positive | Test System: E. COLI, Strain/Indicator: WP2, Metabolic Activation: NONE, Method: STANDARD PLATE active; positive | Test System: E. COLI, Strain/Indicator: WP2S, Metabolic Activation: NONE, Method: STANDARD PLATE active; positive | Test System: E. COLI, Strain/Indicator: WP2 UVRA, Metabolic Activation: NONE, Method: STANDARD PLATE active; positive | Test System: MOUSE LYMPHOMA, Strain/Indicator: L5178Y (TK+/TK-)/6-THIOGUANINE, Metabolic Activation: NONE, Method: SUSPENSION active; positive | Test System: MOUSE LYMPHOMA, Strain/Indicator: L5178Y (TK+/TK-)/6-THIOGUANINE, Metabolic Activation: NONE, Method: SUSPENSION IN TRAYS active; positive | Test System: MOUSE LYMPHOMA, Strain/Indicator: L5178Y (TK+/TK-)/OUABAIN, Metabolic Activation: NONE, Method: SUSPENSION active; positive | Test System: MOUSE LYMPHOMA, Strain/Indicator: L5178Y (TK+/TK-)/OUABAIN, Metabolic Activation: NONE, Method: SUSPENSION IN TRAYS active; positive | Test System: MOUSE LYMPHOMA, Strain/Indicator: L5178Y (TK+/TK-)/TRIFLUOROTHYMIDINE, Metabolic Activation: NONE, Method: SUSPENSION active; positive | Test System: MOUSE LYMPHOMA, Strain/Indicator: L5178Y (TK+/TK-)/TRIFLUOROTHYMIDINE, Metabolic Activation: NONE, Method: SUSPENSION IN TRAYS active; positive | Test System: MOUSE LYMPHOMA, Strain/Indicator: L5178Y (TK+/TK-), Metabolic Activation: NONE, Method: SUSPENSION/PLATE active; positive
